The target of assay [1] is T1, Solute carrier family 15 member 1 (Homo sapiens) (UniProt P46059).
T1 sequence (whole entry): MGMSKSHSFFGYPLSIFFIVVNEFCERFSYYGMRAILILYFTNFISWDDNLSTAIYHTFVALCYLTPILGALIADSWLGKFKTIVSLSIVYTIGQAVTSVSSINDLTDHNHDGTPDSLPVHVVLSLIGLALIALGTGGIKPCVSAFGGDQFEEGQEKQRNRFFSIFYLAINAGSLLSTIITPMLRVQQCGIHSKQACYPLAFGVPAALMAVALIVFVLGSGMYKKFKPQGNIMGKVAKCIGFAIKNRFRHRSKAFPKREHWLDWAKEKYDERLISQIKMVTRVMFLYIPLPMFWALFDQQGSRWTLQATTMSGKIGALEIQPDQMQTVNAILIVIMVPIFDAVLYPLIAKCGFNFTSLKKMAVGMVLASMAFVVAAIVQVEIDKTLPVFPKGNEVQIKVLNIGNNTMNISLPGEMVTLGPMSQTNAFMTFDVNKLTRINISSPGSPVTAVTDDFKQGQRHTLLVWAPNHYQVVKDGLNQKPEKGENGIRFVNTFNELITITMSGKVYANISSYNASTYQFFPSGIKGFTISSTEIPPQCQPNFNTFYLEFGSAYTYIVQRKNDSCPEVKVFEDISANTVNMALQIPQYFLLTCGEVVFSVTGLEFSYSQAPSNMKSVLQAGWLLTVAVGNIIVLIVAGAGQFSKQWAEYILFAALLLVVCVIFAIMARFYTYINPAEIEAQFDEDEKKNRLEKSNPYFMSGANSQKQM
Nature of the assay: TP_TRANSPORTER: inhibition of Sulpiride uptake (Surpiride: 100 uM, Gly-Sar: 1000 uM) in Caco-2 cells. It is filed as functional, cell-based. Further details: scale not given: the % may be the effect or the level left.

For assay [2], the target named is T1, Solute carrier family 15 member 1 (Homo sapiens). Nature of the assay: TP_TRANSPORTER: trans-stimulation of Sulpiride uptake (Surpiride: 100 uM, Gly-Sar: 1000 uM) in Caco-2 cells. It is filed as functional, cell-based.

Among the data in ChEMBL document CHEMBL2074171, “Studies on intestinal absorption of sulpiride (1): carrier-mediated uptake of sulpiride in the human intestinal cell line Caco-2” (Biol Pharm Bull, 2002) are Activity values, retold here.

Peptide text beside a SMILES is read from it.

`CN(CC(=O)O)C(=O)CN` (HELM PEPTIDE1{G.[Sar]}$$$$V2.0): the Activity in assay [1] was 65%; in assay [2] it was 135%.
